From publication PMC10515483, “Structure–Reactivity Studies of 2-Sulfonylpyrimidines Allow Selective Protein Arylation” (Bioconjugate Chemistry, 2023)
In brackets after ≈: the same amount, converted by molar mass.

Columns and labels:
[1] = GSH arylation rate constants (NMR; UV-vis for fast warheads); format: physicochemical; parameters: key to rate constant (k) for the reaction with GSH / k: NR = no reaction; details: for k: Table S8, rate constants obtained at pH = 7; for k change (vs ref): ratio to rate constant of 4q, acceleration (+) or deceleration (-); for k/kref / ΔΔG≠1exp: relative to 4q; for ΔΔG≠1exp: via -RTln(k/kref); for times less reactive than 4q: GSH
Source text: We employed nuclear magnetic resonance (NMR) and UV–vis to quantify the reactivity of our 2-SP derivatives and other representative electrophiles (Figure 2) against cysteine. NMR allowed straightforward determination of reaction rate constants through dual monitoring of the consumption of the warhead and formation of the product by integration of their respective NMR signals (Figures S1–S3). It simultaneously provided a direct readout on reaction specificity and hydrolytic stability of the warhead. All measurements were carried out in KPi buffer in the presence of 5% d^6-dmso, which is generally well-tolerated by a wide range of proteins in in vitro studies. N-acetylcysteine methylester (NACME) and L-glutathione (GSH) are useful model cysteine nucleophiles for in vitro studies of electrophilic agents.[32] Mixing reference electrophile 2-methylsulfonylpyrimidine (4q) with NACME or GSH in a 1:10 ratio (pseudo-first-order conditions) allowed extraction of accurate and reproducible second order rate constants (k).
Figure 3 In vitro determination of electrophilic reactivity of compounds. (A) NMR assay setup for warhead/GSH reaction rate constant determination and chemoselectivity monitoring, over a 6 h time scale. Purple bead = GSH. Hydrolytic stability was determined in the same way over 36 h. d^4-Trimethylsilylpropanoate (TMSP, blue box) was used as an internal standard for monitoring the warhead solubility. Second-order reaction rate constants (k) were obtained from their pseudo-first-order counterparts (k′), by time-dependent normalized integration of the disappearing warhead signals. […] (B) Experimental second-order rate constants (y axis, log10 scale) for the reaction of representative 2-SP derivatives (left, 11 out of ca. 40 examples) and previously reported heteroarylsulfones (right) with GSH in a KPi buffer, pH 7.0, 20 °C. All rate constants were calculated as an average of at least two independent measurements. Numerical values and standard deviations at both pH 7.0 and 6.5, along with a full list of 2-SPs and other electrophile types tested, are presented in Tables S2–S6 and Figure S4. The horizontal dashed line marks the reaction rate of 2-methylsulfonylpyrimidine at pH 7.0, as a reference when comparing with other reagents (see main text).
To establish an accurate structure–reactivity profile of 2-SP reagents, we systematically determined their reaction rate constants for the arylation of GSH by NMR, at pH 7.0 and 6.5. This was a prerequisite to (i) quantify the influence of substitution on reaction rates; (ii) accurately assess the tunability and chemoselectivity of 2-SPs for cysteine arylation; (iii) determine the influence of pH on the reaction rates to further inform on the precise reaction mechanism; and (iv) benchmark the overall performance of 2-SPs with those of previously reported fast reacting heteroarylsulfones and other common cysteine reactive warheads (Figure 2C,D).

[2] = Hydrolytic stability in KPi buffer without thiol (NMR); format: physicochemical; details: for % degradation: over 12 hours, 50 mM KPi, footnote a: crashing out of solution, no degradation product; for hydrolysis in aqueous buffer (in words): buffer in the absence of GSH
Experimental: NMR studies: rate constant determination and hydrolytic stability. 850 µL of 50 mM Kpi buffer solution (pH 8.2 or 7), 20 µL of the appropriate pyrimidine stock s olution (100 mM in DMSO -d6), 20 µL of TMSP stock solution (22.2 mM in DI water), 30 µL DMSO -d6, and 80 µL of GSH stock solution (0.25 M in DI water, reactivity only) were successively added/mixed at room temperature, final pH 7.0 or 6.5 (Table S1). 600 µL of this freshly prepared solution was poured into an NMR tube and immediately […]
transferred to the NMR instrument for acquisition. 1H spectra (16 scans) were recorded every 10 minutes under water suppression conditions. Following acquisition, spectra were analysed using […]
order reaction rate constants (k’).

[3] = Solubility in KPi buffer by NMR with TMSP internal standard; details: 50 mM KPi aqueous buffer, pH 7, aqueous with cosolvent or surfactant or cyclodextrin, kinetic from dmso stock
Source text: Stability and solubility assays
TopSpin. Normalised integrations of the pyrimidine aromatic 1H signals in the starting material and
product were plotted as a function of time (s), using the TMSP peak as standard for integral
calibration/normalisation and monitoring of compound solubility, allowing extraction of pseudo first
order reaction rate constants (k’). Second order rate constants (k) were back calculated from the ratio
of the pseudo first counterparts and the concentration of thiol in solution.
was confirmed by formation of a single S-arylated product (characteristic 2-alkylthioether signals),
concomitant with formation of the sulfinic acid by -product (leaving group). Hydrolytic stability
assessment was performed at pH 7.0 and pH 8.2 in a similar manner, in the absence of thiol.
Chemoselectivity. Similarly, but replacing GSH by other amino acids , reference 2-
methylsulfonylpyrimidine 4q in 50 mM KPi (pH 8.2) was incubated with 10 equivalents of either Boc-
Lys-OH, L-ser-OMe, N-Ac-Tyr-OH or Proline were used.

[4] = pH 6.5, by NMR, KPi buffer, 5% DMSO-d6
[5] = pH 7.0, by NMR, KPi buffer, 5% DMSO-d6

SMILES: CSc1ncc(-c2ccccc2)cn1 [2p]
- melting point: 98 °C
- rate constant (k) for the reaction with GSH [1, 4]: NR
- rate constant (k) for the reaction with GSH [1, 5]: NR

SMILES: CSc1ncc(I)cn1 [2u]
- melting point: 104 °C
- rate constant (k) for the reaction with GSH [1, 4]: NR
- rate constant (k) for the reaction with GSH [1, 5]: NR

SMILES: CSc1ncc(C(=O)O)cn1 [2v]
- melting point: 251 °C
- rate constant (k) for the reaction with GSH [1, 4]: NR
- rate constant (k) for the reaction with GSH [1, 5]: NR

SMILES: CSc1ncc([N+](=O)[O-])cn1 [2w]
- melting point: 84 °C
- rate constant (k) for the reaction with GSH [1, 4]: 0.00025 ± 0.00016 M⁻¹ s⁻¹
- rate constant (k) for the reaction with GSH [1, 5]: 0.0034 ± 0.0016 M⁻¹ s⁻¹

SMILES: CS(=O)(=O)c1ncc(N)cn1 [4m]
- melting point: 138 °C
- rate constant (k) for the reaction with GSH [1, 4]: NR
- second order rate constant k with GSH ([1]; pH 7.0, KPi buffer): < 5.0 × 10^–5 M^–1 s^–1
- rate constant (k) for the reaction with GSH [1, 5]: NR

SMILES: Cc1cnc(S(C)(=O)=O)nc1 [4o]
- % degradation ([2]; pH 8.2): < 5%
- solubility [3]: ≥ 2000 µM
- k [1]: 0.0017 M⁻¹ s⁻¹
- rate constant (k) for the reaction with GSH [1, 4]: NR
- rate constant (k) for the reaction with GSH [1, 5]: 0.0017 ± 0.0015 M⁻¹ s⁻¹
- k change (vs ref) ([1]; pH 7.0): -15 fold
- k/kref [1]: 0.068
- ΔΔG≠1exp [1]: 1.6 kcal/mol

SMILES: CS(=O)(=O)c1ncc(Cl)cn1 [4s]
- % degradation ([2]; pH 8.2): 7%
- solubility [3]: ≥ 2000 µM
- k [1]: 0.19 M⁻¹ s⁻¹
- rate constant (k) for the reaction with GSH [1, 4]: 0.027 ± 0.012 M⁻¹ s⁻¹
- rate constant (k) for the reaction with GSH [1, 5]: 0.19 ± 0.11 M⁻¹ s⁻¹
- k change (vs ref) ([1]; pH 7.0): +8 fold
- k/kref [1]: 7.6
- ΔΔG≠1exp [1]: -1.2 kcal/mol

SMILES: CS(=O)(=O)c1ncc([N+](=O)[O-])cn1 [4w]
- hydrolysis in aqueous buffer (in words) [2]: partial, slow hydrolysis
- melting point: 113 °C
- solubility [3]: ~130 µM (≈ 26.4 µg/mL)
- rate constant (k) for the reaction with GSH ([1]; pH 6.5, measured by UV titrations): 15 ± 0.4 M⁻¹ s⁻¹
- rate constant (k) for the reaction with GSH ([1]; pH 7.0, measured by UV titrations): 47 ± 1 M⁻¹ s⁻¹
- k change (vs ref) ([1]; pH 7.0): +1,880 fold

SMILES: CS(=O)(=O)c1nnnn1-c1ccccc1 [compound 7, 1-phenyl 5-methylsulfonyl tetrazole, reference compound]
- % degradation ([2]; pH 7.0): < 5%
- % degradation ([2]; pH 8.2): 8%
- solubility [3]: ≥ 2000 µM
- second order rate constant k with GSH ([1]; pH 7.0, KPi buffer): ≈ 4.3 M^–1 s^–1
- k change (vs ref) ([1]; pH 7.0): +170 fold

SMILES: CS(=O)(=O)c1nc2ccccc2s1 [compound 9, 2-Methysulfonylbenzothiazole, reference compound]
- % degradation ([2]; pH 7.0): 15%
- % degradation ([2]; pH 8.2): < 5%
- solubility [3]: ≥ 2000 µM
- k [1]: 0.23 M⁻¹ s⁻¹
- rate constant (k) for the reaction with GSH [1, 4]: 0.063 ± 0.023 M⁻¹ s⁻¹
- second order rate constant k with GSH ([1]; pH 7.0, KPi buffer): ≈ 0.23 M^–1 s^–1
- rate constant (k) for the reaction with GSH [1, 5]: 0.23 ± 0.035 M⁻¹ s⁻¹
- k change (vs ref) ([1]; pH 7.0): +9 fold
- k/kref [1]: 9.2
- ΔΔG≠1exp [1]: -1.31 kcal/mol

SMILES: Cc1cc(C)c(C#N)c(S(C)(=O)=O)n1 [compound 11, 4,6-dimethyl-2-(methylsulfonyl)nicotinonitrile, reference compound]
- solubility [3]: ≥ 2000 µM
- times less reactive than 4q ([1]; pH 7.0): ca. 5 times
- rate constant (k) for the reaction with GSH [1, 4]: 0.00045 ± 5e-05 M⁻¹ s⁻¹
- rate constant (k) for the reaction with GSH [1, 5]: 0.0023 ± 0.00025 M⁻¹ s⁻¹
- k change (vs ref) ([1]; pH 7.0): -11 fold

SMILES: Cc1cc(C)c([N+](=O)[O-])c(S(C)(=O)=O)n1 [compound 12, 4,6-dimethyl-2-(methylsulfonyl)-3-nitropyridine, reference compound]
- % degradation ([2]; pH 7.0): < 5%
- % degradation ([2]; pH 8.2): < 5%
- solubility [3]: ≥ 2000 µM
- times less reactive than 4q ([1]; pH 7.0): ca. 5 times
- k [1]: 0.0028 M⁻¹ s⁻¹
- rate constant (k) for the reaction with GSH [1, 4]: 0.00075 ± 0.00025 M⁻¹ s⁻¹
- rate constant (k) for the reaction with GSH [1, 5]: 0.0028 ± 0.00025 M⁻¹ s⁻¹
- k change (vs ref) ([1]; pH 7.0): -9 fold
- k/kref [1]: 0.11
- ΔΔG≠1exp [1]: 1.29 kcal/mol

SMILES: COc1nc(OC)nc(S(C)(=O)=O)n1 [compound 19, 2,4-dimethoxy-6-(methylsulfonyl)-1,3,5-triazine]
- hydrolysis in aqueous buffer (in words) [2]: rapid hydrolysis in aqueous buffers or by trace/ambient moisture
- k [1]: unstable
